# Experiments:
# [1] = molecular target: WRN helicase (Homo sapiens, UniProt Q14191); test: WRN helicase hydrolysis/unwinding of double-stranded DNA (fluorescence); assay type: biochemical
# Description: The activity of the molecules of the present disclosure on the hydrolysis of double-stranded PP-6TR DNA by WRN helicase was tested.
# The working solution and buffer were prepared, and the test compound was dissolved in DMSO followed by a4-fold dilution (with a final concentration of 10 μM as the starting concentration). Then, 0.2 μL of the test compound solution was added to a384-well plate, followed by 10 μL of (2×) WRN enzyme solution. The mixture was incubated in the dark for 30 minutes, after which 10 μL of substrate detection solution containing double-stranded DNA was added to initiate the reaction (DNA length: 19 bp, labeled with TAMRA at the 3′ end and BHQ2 at the 5′ end). The mixture was incubated at room temperature for 60 minutes. The inhibitory activity (IC50) against the WRN enzyme was calculated based on the fluorescence change (Ex530/Em590) between the blank group (DMSO) and the compound group.
# [2] = Liver microsome stability test; assay type: in vitro ADME; conditions: human liver microsomes 0.5 mg/mL, compound 1 μM, NADPH 1 mM, 60 minutes
# Description: The liver microsome stability test of the compounds is as follows:
# The compounds of the present disclosure were subjected to a liver microsome stability test. The compounds to be tested were co-incubated with liver microsomes of different species with or without the addition of NADPH. The final concentration of the compounds to be tested in the test system was 1 μM, the final concentration of NADPH was 1 mM, and the final concentration of liver microsomes was 0.5 mg/mL.
# [3] = test system: MSI-H colorectal cancer SW48 cell line; test: 2D anti-proliferative activity, MSI-H SW48 cells (CTG, 5 days); assay type: cell-based
# Description: The molecules of the present disclosure were tested for their anti-proliferative activity against MSI-H tumor cells.
# The proliferation of tumor cells with microsatellite instability MSI-H is sensitive to WRN inhibitors, while the proliferation of microsatellite stable (MSS) tumor cells is insensitive to WRN inhibitors. By testing the activities of the two, it is shown that the molecules of the present disclosure have an inhibitory and synthetic lethal effect on WRN at the cellular level.
# (§1) The MSI-unstable SW48 colorectal cancer cells were cultured in RPMI 1640 medium containing 10% FBS and 1% penicillin-streptomycin in a 37° C., 5% CO2 constant temperature incubator. A 40 μL cell suspension was added to each well of a 384-well microplate. Using Echo, 40 nL of compounds at different concentrations was dispensed into each well, followed by incubation in a 37° C., 5% CO2 constant temperature incubator for 5 days. Then, 40 μL of CTG solution (Promega, Cat No. G7573) was added to each well, and the plate was incubated in the dark in a 37° C., 5% CO2 constant temperature incubator for 30 minutes. Luminescence was measured using an Envision multi-function microplate reader (Perkin Elmer, Model: Envision 2104). The luminescent signal was proportional to the amount of ATP in the system, and the amount of ATP directly represented the number of living cells in the system.
# [4] = test system: SW 48 (MSI-H) colorectal cancer cells; test: In vivo pharmacodynamic assay, SW48 xenograft in nude mice; set-up: species or system BALB/c nude mice; conditions: 120 mg/kg, QD, oral
# Description: In vivo pharmacodynamic assay in BALB/c nude mice. Details are as follows:
# SW 48 (MSI-H) colorectal cancer cells were cultured (L15 medium with 10% fetal bovine serum), and then inoculated into 6-8-week old female BALB/c nude mice (weighing about 20 g), wherein all mice were inoculated subcutaneously. The mice were cultured in an SPF-grade experimental environment, and all mice had free access to commercially certified standard diets. When the average tumor volume of the mice grew to about 150 mm^3, the test compound was orally administered daily. The dosage was as follows: blank group vehicle (10% HP-β-CD aqueous solution, pH-7). The dosage of the administration group was 120 mg/kg, 50 mg/kg, or 20 mg/kg, once a day. The tumor volume was measured with a two-dimensional caliper three times a week, and the animals were weighed every day. […] The tumor volume was calculated using the formula: V=½a*b^2, where a represents the long diameter of the tumor, and b represents the short diameter of the tumor.
# [5] = Pharmacokinetic evaluation in mice; assay type: in vivo, CD1 female mice
# Description: CD1 female mice were used as test animals and the drug was administered orally/intravenously (oral dosage: 10 mg/kg, intravenous dosage: 2 mg/kg).
# Assay protocol: The oral group consisted of 3 mice per group (vehicle: 10% Hβ-CD-pH7.4), and the intravenous group consisted of 3 mice per group. […] The blood concentrations in plasma after oral and intravenous administration of mice were determined by LC/MS/MS, respectively.
# [6] = test system: MSS colorectal cancer HT-29 cell line; test: 2D anti-proliferative activity, MSS HT-29 cells (CTG, 5 days); assay type: cell-based
# Description: The molecules of the present disclosure were tested for their anti-proliferative activity against MSS tumor cells.
# as §1, with “MSS HT-29” for “MSI-unstable SW48”, “McCoy's 5A” for “RPMI 1640”
# Chain of WRN helicase (Q14191 whole entry): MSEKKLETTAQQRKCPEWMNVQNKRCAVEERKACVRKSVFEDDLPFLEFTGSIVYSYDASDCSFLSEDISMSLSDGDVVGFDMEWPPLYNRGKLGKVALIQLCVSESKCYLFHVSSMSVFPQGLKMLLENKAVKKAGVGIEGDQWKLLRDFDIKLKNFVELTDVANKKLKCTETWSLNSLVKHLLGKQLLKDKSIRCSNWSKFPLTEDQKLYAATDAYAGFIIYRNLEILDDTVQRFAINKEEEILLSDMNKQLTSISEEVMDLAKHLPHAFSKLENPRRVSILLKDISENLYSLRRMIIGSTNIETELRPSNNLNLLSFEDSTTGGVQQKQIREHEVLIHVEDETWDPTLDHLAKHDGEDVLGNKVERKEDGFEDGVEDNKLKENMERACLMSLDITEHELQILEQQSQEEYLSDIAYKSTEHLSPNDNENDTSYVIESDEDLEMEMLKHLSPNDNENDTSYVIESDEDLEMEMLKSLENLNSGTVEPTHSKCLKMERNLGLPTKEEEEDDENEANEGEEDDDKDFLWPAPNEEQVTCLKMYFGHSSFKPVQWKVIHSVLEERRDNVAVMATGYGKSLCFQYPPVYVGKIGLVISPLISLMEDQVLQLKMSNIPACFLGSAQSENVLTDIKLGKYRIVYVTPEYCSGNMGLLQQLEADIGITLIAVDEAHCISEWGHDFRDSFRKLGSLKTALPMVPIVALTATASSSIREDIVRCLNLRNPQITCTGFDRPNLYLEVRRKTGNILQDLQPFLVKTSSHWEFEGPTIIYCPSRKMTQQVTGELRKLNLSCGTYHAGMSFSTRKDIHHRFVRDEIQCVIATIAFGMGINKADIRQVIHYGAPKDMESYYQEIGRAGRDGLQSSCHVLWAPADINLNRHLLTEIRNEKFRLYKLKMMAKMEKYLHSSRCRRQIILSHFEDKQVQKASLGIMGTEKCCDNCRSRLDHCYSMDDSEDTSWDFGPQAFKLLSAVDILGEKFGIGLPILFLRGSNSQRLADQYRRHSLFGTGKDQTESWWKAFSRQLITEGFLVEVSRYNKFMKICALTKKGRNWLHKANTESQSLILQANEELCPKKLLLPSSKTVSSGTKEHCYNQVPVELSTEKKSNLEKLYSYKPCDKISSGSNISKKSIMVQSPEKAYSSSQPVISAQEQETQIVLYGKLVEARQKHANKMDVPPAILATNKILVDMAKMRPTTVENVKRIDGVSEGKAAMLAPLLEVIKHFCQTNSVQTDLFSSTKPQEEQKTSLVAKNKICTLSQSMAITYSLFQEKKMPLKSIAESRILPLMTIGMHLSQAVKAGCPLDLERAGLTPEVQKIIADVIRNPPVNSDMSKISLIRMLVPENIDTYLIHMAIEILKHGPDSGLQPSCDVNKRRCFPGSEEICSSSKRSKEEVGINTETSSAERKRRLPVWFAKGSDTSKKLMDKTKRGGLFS
smiles,measurement,setting,value
CCc1c(N2CCN(C(=O)c3ncnc(C)c3O)CC2)c(=O)n2nc(C3=CCOCC3)nc2n1CC(=O)Nc1ccc(C(F)(F)F)c2ccsc12 [Compound H1],IC50,[1],1.5 nM
same,Human Clint μL/min/mg Protein,[2],14.8 μL/min/mg Protein
same,Human Clint/(mL/min/kg),[2],18.5 mL/min/kg
same,Average value/ Inhibition rate,[3]; 0.038146973 nM,−7.8792
same,Test 1/ Inhibition rate,[3]; 0.038146973 nM,−7.3699
same,Test 2/ Inhibition rate,[3]; 0.038146973 nM,−8.3885
same,Average value/ Inhibition rate,[3]; 0.152587891 nM,−7.2326
same,Test 1/ Inhibition rate,[3]; 0.152587891 nM,−8.9847
same,Test 2/ Inhibition rate,[3]; 0.152587891 nM,−5.4804
same,Average value/ Inhibition rate,[3]; 0.610351563 nM,−7.2423
same,Test 1/ Inhibition rate,[3]; 0.610351563 nM,−8.9821
same,Test 2/ Inhibition rate,[3]; 0.610351563 nM,−5.5025
same,Average value/ Inhibition rate,[3]; 2.44140625 nM,−1.2893
same,Test 1/ Inhibition rate,[3]; 2.44140625 nM,−5.0894
same,Test 2/ Inhibition rate,[3]; 2.44140625 nM,2.5108
same,Average value/ Inhibition rate,[3]; 9.765625 nM,−9.8115
same,Test 1/ Inhibition rate,[3]; 9.765625 nM,−9.6799
same,Test 2/ Inhibition rate,[3]; 9.765625 nM,−9.9432
same,inhibitory activity on SW48 cells,[3]; 39 nM,high inhibitory activity
same,Average value/ Inhibition rate,[3]; 39.0625 nM,12.6131
same,Test 1/ Inhibition rate,[3]; 39.0625 nM,9.3323
same,Test 2/ Inhibition rate,[3]; 39.0625 nM,15.8938
same,Average value/ Inhibition rate,[3]; 156.25 nM,98.3044
same,Test 1/ Inhibition rate,[3]; 156.25 nM,98.4846
same,Test 2/ Inhibition rate,[3]; 156.25 nM,98.1243
same,Average value/ Inhibition rate,[3]; 625 nM,98.5020
same,Test 1/ Inhibition rate,[3]; 625 nM,98.3268
same,Test 2/ Inhibition rate,[3]; 625 nM,98.6771
same,Average value/ Inhibition rate,[3]; 2500 nM,99.9213
same,Test 1/ Inhibition rate,[3]; 2500 nM,99.6262
same,Test 2/ Inhibition rate,[3]; 2500 nM,100.2164
same,Average value/ Inhibition rate,[3]; 10000 nM,100.6963
same,Test 1/ Inhibition rate,[3]; 10000 nM,100.7430
same,Test 2/ Inhibition rate,[3]; 10000 nM,100.6495
same,IC50,[3]; 5 days,55 nM
same,TGI,[4],105%
same,Tumor volume (mm^3)-D 1,[4]; day 1,171 mm^3
same,Tumor volume (mm^3)-D 21,[4]; day 21,28 mm^3
same,in vivo exposure compared with reference molecule A1,[5],higher in vivo exposure
same,AUC0-24,[5]; IV 2 mg/kg,1421 ng·h/mL
same,C0,[5]; IV 2 mg/kg,3299 ng/mL
same,Cl,[5]; IV 2 mg/kg,23.4 mL/min/kg
same,T1/2,[5]; IV 2 mg/kg,1.6 h
same,AUC0-24,[5]; PO 10 mg/kg,5599 ng·h/mL
same,Cmax,[5]; PO 10 mg/kg,4645 ng/mL
same,T1/2,[5]; PO 10 mg/kg,1.2 h
same,Tmax,[5]; PO 10 mg/kg,0.5 h
same,F,[5]; PO 10 mg/kg vs IV 2 mg/kg,79%
same,IC50,[6],> 10000 nM

# Source: patent US20260216197A1, “WRN HELICASE INHIBITOR” (SUZHOU PUHE BIOPHARMA CO., LTD., priority 2022, published 2026)
